How the values were obtained:
[1] = test system: A375 human malignant melanoma cell line; assay: MTT cytotoxicity assay, A375; format: cell-based; conditions: A-375, 48 h, medium without FBS, read-out: IC50 (Means ± SD) A375
Experimental: (§1) The cytotoxic activity of the compounds on cancer cell lines, including HT-29, MCF-7, A375, K562, andNCM460cell lines, was measured using the MTT assay with a small modification. Briefly, cells were plated in 96-well plates at a density of 1 × 10^4 cells per well and allowed to grow overnight, then the medium was replaced with fresh RPMI1640 medium containing serially diluted compounds, and the cells were further incubated at 37 °C with 5% CO2 for 48 h. In this experiment, 1 and 6 were diluted into six different series concentrations from 10 μg/mL to 0.0097 μg/mL with 4× dilution each, while 2 and 3 were diluted from 500 μg/mL to 2.06 μg/mL, and 4, 5, and 7 from 300 μg/mL to 1.23 μg/mL with 3× dilution each. Paclitaxel, a clinical medication used as a positive control, was diluted from 100 μg/mL to 3.125 μg/mL with […]. HT-29, MCF-7, and A375 were all cultured in serum-free RPMI1640, while the K562 was cultured in DMEM containing FBS throughout this experiment. The culture medium was removed after the incubation, and then 100 μL of the 5 mg/mL MTT solution was added to each well and further incubated at 37 °C for 4 h. Finally, the supernatants were removed, and 150 μL of dimethyl sulfoxide (DMSO) was added to each well. After shaking the plates for 10 min at room temperature, the optical density value was measured spectrophotometrically at 570 nm using the microplate reader. The IC50 value (50% inhibitory concentration) was determined to evaluate the cell viability of these cell lines. In this experiment, Graph Pad Prism 5software (San Diego, CA, USA) was used to calculate the half inhibitory concentration (IC50) values. Each experiment was independently repeated at least three times and represented as the means ± standard deviation (SD).

[2] = test system: HT-29, MCF-7, A375, K562 and NCM460 cell lines; assay: MTT cytotoxicity assay, whole panel of cell lines; format: cell-based, human; conditions: all tested cell lines
Experimental: as §1

[3] = test system: MCF-7 human breast cancer cell line; assay: MTT cytotoxicity assay, MCF-7; format: cell-based; conditions: MCF7, 48 h, medium without FBS, read-out: IC50 (Means ± SD) MCF-7
Experimental: as §1

[4] = test system: K562 human chronic myeloid leukemia cell line; assay: MTT cytotoxicity assay, K562; format: cell-based; conditions: 48 h, medium containing FBS, NA = not active, read-out: IC50 (Means ± SD) K562
Experimental: as §1

[5] = test system: HT-29 human colon cancer cell line; assay: MTT cytotoxicity assay, HT-29; format: cell-based; conditions: 48 h, medium without FBS, read-out: IC50 (Means ± SD) HT-29
Experimental: as §1

[6] = test system: NCM460 human normal colon epithelial cell line; assay: MTT cytotoxicity assay, NCM460; format: cell-based; conditions: 48 h, normal colon epithelial cells, read-out: IC50 (Means ± SD) NCM460
Experimental: as §1

| Compound | IC50 [1] | cytotoxic activity toward the tested cell lines (in words) [2] | IC50 [3] | IC50 [4] | IC50 [5] | IC50 [6] |
| --- | --- | --- | --- | --- | --- | --- |
| CC[C@H](O)CC(=O)CC[C@H](O)C(C)C(=O)O (some centres unmarked) [Compound 1] | 45 ± 1.21 µM | less activity | 5.44 ± 1.33 µM | 1.56 ± 0.21 µM | 1.98 ± 1.04 µM | 27.9 ± 4.7 µM |
| C[C@H](C(=O)O)[C@@H]1CC[C@H](C[C@@H](C)O)O1 [Compound 2, nonactic acid] | 185.9 ± 1.27 µM | – | 289 ± 3.54 µM | 83.6 ± 2.54 µM | 44.4 ± 2.77 µM | 1605 ± 14.4 µM |
| CC[C@@H](O)C[C@H]1CC[C@@H]([C@H](C)C(=O)O)O1 [Compound 3, homononactic acid] | 146 ± 2.01 µM | – | 99.1 ± 2.66 µM | 57 ± 1.88 µM | 39.9 ± 3.22 µM | 1027 ± 8.01 µM |
| CCOC(=O)[C@@H](C)[C@@H]1CC[C@H](C[C@H](O)CC)O1 [Compound 4, ethyl homononactate] | 65.09 ± 0.62 µM | – | 39.6 ± 2.57 µM | 12.3 ± 0.54 µM | 11.8 ± 1.83 µM | 249 ± 4.22 µM |
| CC[C@@H](O)C[C@H]1CC[C@@H]([C@H](C)C(=O)O[C@@H](CC)C[C@@H]2CC[C@H]([C@@H](C)C(=O)O)O2)O1 [Compound 5, homononactylhomononactate] | 30.7 ± 0.93 µM | – | 16.7 ± 1.08 µM | 14.2 ± 0.47 µM | 38.1 ± 2.35 µM | 33.3 ± 3.31 µM |
| CC(C)[C@@H]1NC(=O)[C@H](C)OC(=O)[C@@H](C(C)C)NC(=O)[C@@H](C(C)C)OC(=O)[C@H](C(C)C)NC(=O)[C@H](C)OC(=O)[C@@H](C(C)C)NC(=O)[C@@H](C(C)C)OC(=O)[C@H](C(C)C)NC(=O)[C@H](C)OC(=O)[C@@H](C(C)C)NC(=O)[C@@H](C(C)C)OC1=O [Compound 6, valinomycin] | – | significant cytotoxic activities | – | – | – | – |
| CC(C)CC1NC(=O)C2CCCN2C1=O (centres unmarked) [Compound 7, cyclo-(Pro-Leu)] | 51.1 ± 4.73 µM | – | 78.8 ± 1.95 µM | 21.7 ± 0.35 µM | 102 ± 2.66 µM | 776 ± 11.4 µM |
| CCOC(=O)[C@@H](C)C1CCC(C[C@@H](C)O)O1 (some centres unmarked) [Compound 8] | 445.9 ± 4.1 µM | – | 847 ± 39.5 µM | – | 441.3 ± 1.65 µM | 164 ± 3.09 µM |
| CC[C@@H](O)CC1CCC([C@H](C)C(=O)OC(C)C)O1 (some centres unmarked) [Compound 9] | 115 ± 3.66 µM | broad toxicity | 171 ± 5.08 µM | 69.4 ± 3.9 µM | 113 ± 3.68 µM | 29 ± 3.68 µM |
| CCCCOC(=O)[C@@H](C)C1CCC(C[C@H](O)CC)O1 (some centres unmarked) [Compound 10] | 314.6 ± 0.57 µM | – | 416.5 ± 3.9 µM | 285.1 ± 2.44 µM | 326.8 ± 1.4 µM | 109 ± 3.6 µM |
